Laboratory results reported in patent publication US20200254065A1, “LONG-ACTING GLP-2 ANALOGS” (OPKO Biologics Ltd., priority 2019, published 2020).
Entries after “also recorded” stand apart in the source; their conditions may differ. Square brackets hold non-standard residues; d marks the D form. Peptide text beside a SMILES is read from it. Nle = CCCC[C@H](N)C(=O)O

Columns and labels:
[1] = PK after single SC injection in rats (LC-MS/MS); details: rat, in vivo, 2 mg/kg
Method: To support the pharmacodynamic effects of V4 and Cys-FMS-V4 as detailed in Example 9, a pharmacokinetic analysis was also conducted. In this study (Study reference 15204), all animals were injected SC on Day 1 with 2 mg/kg peptide content of V4, Cys-FMS-V4 and Apraglutide. Blood samples were collected at 2, 8, 12, 24, 36, 48, 72, 96, 120 hours, and Days 7, 8, 9, 10, 11, 12, 13 and 14 post-dose administration and subsequently taken to LC-MS/MS analysis to determine plasma levels of each compound. For Cys-FMS-V4, a 2-analyte method was applied to determine the plasma concentrations of both the full conjugate and the V4 that was hydrolyzed from it (V4 hydrolyzed). Plasma concentrations (μM), as measured by using the LC-MS/MS method, of V4 peptide, Cys-FMS-V4, hydrolyzed V4, and Apraglutide are presented in FIG. 17.

[2] = 2-compartmental pharmacokinetic modelling (MONOLIX 2018R2); assay type: in vivo, rat; details: rat, in vivo
Method: An in-depth PK modeling was performed to address the unexpected differences in half life, distribution, and pharmacological effect between V4, Cys-FMS-V4, and Apraglutide in the rat model. The analysis was performed with MONOLIX 2018R2 suite using a 2-compartmental pharmacokinetic model. The data used in this analysis was comprised from 3 independent experiments (data is presented as their average). The concentration versus time data of V4 that was formed from the Cys-FMS-V4 conjugate (the hydrolyzed peptide) was described appropriately using the values of the pharmacokinetic parameters of V4 peptide. Thus, the disposition of the hydrolyzed V4 was identical to that of the V4 peptide following the IV and SC administration.
The pharmacokinetics of Apraglutide in our studies was determined after SC administration. […] Based on this assumption, the values of volumes of distribution and clearance (Vpept, Vss, Vbeta, and CL) were calculated for Apraglutide (Table 13). The values of the other parameters of Apraglutide in Table 14 (the rate constants and the half-lives) are not dependent on this assumption.

[3] = Pharmacokinetics of modified GLP-2 variants in rats; assay type: in vivo; details: rat, serum, peptide dose 15 mg/kg
[4] = Solubility and stability in different buffer systems, concentrations, incubation and freeze-thaw; assay type: physicochemical; details: Histidine and NaPi, pH 6.8 to 7.5; 1-10 mg/mL; up to 3 days at 37° C.; up to three freeze-thaw cycles
[5] = test system: intestine epithelium (crypts plus villi); assay: Crypts plus villi length, histopathology of small intestine; assay type: in vivo, SD rats
Method: In addition to PEG30-FMS-V4 and PEG30-Fmoc-V4 that have been pharmacology evaluated by small intestinal weight evaluation (As shown in Example 5), four other reversible PEGylated variant 4 (“V4”) conjugates and two reversible linker-V4 conjugates were synthesized. All the above were injected to 6 normal SD rats/group once at 2 mg/kg (peptide dose), while on the 6th day, animals were scarified, and the small intestine was weighted followed by histopathology evaluation. […] Therefore, slices from three areas of the intestine (duodenum, jejunum and ilium) were stained with hematoxylin and eosin and at least 7 Crypts+Villi length/slice were measured. The averaged Villi+Crypt length of each treatment group (n=6) was compared to the vehicle group (negative control) and calculated as percentage increase over vehicle. […]
An additional study to evaluate the efficacy and the longevity of V4 and Cys-FMS-V4 was conducted (Study reference 15204) in which the animals were sacrificed on Days 6 (N=6), 10 (N=4) and 14 (N=4). This experiment measured the pharmacological response compared to the commercially approved SBS treatment drug Gattex. In addition, two new conjugates were tested by conjugating V4 to reduced OSu-linker and Cys-FMS-V4 purified from resin. The animals were injected with a single SC injection at Day 1 with 2 mg/kg peptide content of V4, Cys-FMS-V4, FMS-OSu-V4, Apraglutide and Glepaglutide while Gattex was SC injected daily at 2.5 mg/kg peptide content. […]

CCCC[C@H](NC(=O)[C@H](CCC(=O)O)NC(=O)[C@H](CC(=O)O)NC(=O)[C@H](CO)NC(=O)[C@H](Cc1ccccc1)NC(=O)[C@H](CO)NC(=O)CNC(=O)[C@H](CCC(=O)O)NC(=O)CNC(=O)[C@@H](N)Cc1c[nH]cn1)C(=O)N[C@@H](CC(N)=O)C(=O)N[C@H](C(=O)N[C@H](C(=O)N[C@@H](CC(C)C)C(=O)N[C@@H](CC(=O)O)C(=O)N[C@@H](CC(C)C)C(=O)N[C@@H](CC(C)C)C(=O)N[C@@H](C)C(=O)N[C@@H](C)C(=O)N[C@@H](CCCNC(=N)N)C(=O)N[C@@H](CC(=O)O)C(=O)N[C@@H](Cc1ccccc1)C(=O)N[C@H](C(=O)N[C@@H](CC(N)=O)C(=O)N[C@@H](Cc1c[nH]c2ccccc12)C(=O)N[C@@H](CC(C)C)C(=O)N[C@H](C(=O)N[C@@H](CCC(N)=O)C(=O)N[C@H](C(=O)N[C@@H](CCCCN)C(=O)N[C@H](C(=O)N[C@H](C(=O)N[C@@H](CC(=O)O)C(N)=O)[C@@H](C)O)[C@@H](C)CC)[C@@H](C)O)[C@@H](C)CC)[C@@H](C)CC)[C@@H](C)CC)[C@@H](C)O [Variant 4] (H-HGEGSFSDE[Nle]NTILDLLAARDFINWLIQTKITD-NH2)
AUC(0-inf) [1]: 14.6 µM·h
AUC(0-t) [1]: 13.7 µM·h
CL/F [1]: 0.617 mL/min/kg
Cmax [1]: 490 nM
Time post injection up to which detectable in blood [1]: ≤ 240 h
Tmax [1]: 12 h
Vd/F [1]: 4.07 L/kg
half-life [1]: 3.21 days
Fold increase of Vbeta as compared to the initial volume of distribution [2]: ~51 fold
Fold increase of Vss as compared to the initial volume of distribution [2]: ~8 fold
Ratio (V4/Apraglutide) of CL [2]: 0.96
Ratio (V4/Apraglutide) of Fpept [2]: 0.54
Ratio (V4/Apraglutide) of Vbeta [2]: 1.52
Ratio (V4/Apraglutide) of Vpept [2]: 0.40
Ratio (V4/Apraglutide) of Vss [2]: 1.68
Ratio (V4/Apraglutide) of k12 [2]: 11.60
Ratio (V4/Apraglutide) of k21 [2]: 1.54
Ratio (V4/Apraglutide) of ka—pept [2]: 0.44
Ratio (V4/Apraglutide) of kpepte [2]: 2.40
Ratio (V4/Apraglutide) of t1/2 absorption [2]: 2.28
Ratio (V4/Apraglutide) of t1/2 alpha [2]: 0.17
Ratio (V4/Apraglutide) of t1/2 beta [2]: 1.57
k12 [2]: 0.0749 h⁻¹
k21 [2]: 0.0105 h⁻¹
ka—pept [2]: 0.0729 h⁻¹
kpepte [2]: 0.205 h⁻¹
t1/2 beta [2]: 173.2 h
bioavailability ([2]; Bioavailability lower in comparison to Apraglutide): 46%
Bioavailability following SC injection (reaching the systemic circulation) ([2]; sc): 40.1%
CL ([2]; sc): 12.9 mL/h/kg
Fpept ([2]; sc): 0.401
Local degradation of the dose at the injection site ([2]; sc): ~60%
Vd ([2]; sc): 3.21 L/kg
Vpept ([2]; sc): 62.7 mL/kg
Vss ([2]; sc): 510 mL/kg
t1/2 absorption ([2]; sc): 9.51 h
bioavailability ([2]; sc, Bioavailability following SC injection (reaching the systemic circulation)): ~40%
half-life ([2]; sc, t1/2 absorption): 571 min
half-life ([2]; t1/2 alpha): 77.4 min
half-life ([2]; t1/2 beta): 10400 min
half-life [3]: 1050 min
CMC perspective, combining purity and solubility [4]: outperformed the rest of the peptides
Percent increase of Crypts+Villi length over vehicle (FIG. 3) ([5]; Study 15201, 0.5 and 2 mg/kg peptide dose once, 6 days after injection): dose dependent pharmacology effect on the intestine epithelium
Crypts plus villi length percent increase over vehicle (FIG. 13) ([5]; Study 15203, single SC 2 mg/kg on Day 1, Days 6 and 10, listed as V4, 2 mg/kg): the most pronounced effect on crypts plus villi length over vehicle compared to Apraglutide and Glepaglutide; also recorded: prolonged activity 10 days following a single SC injection
Crypts plus villi length percent increase over vehicle (FIG. 14) ([5]; Study 15204, single SC 2 mg/kg on Day 1, Days 6, 10 and 14): the most prominent and prolonged effect on villi and crypts length up to 14 days from injection
Villi plus crypts length percent increase over vehicle (FIG. 16) ([5]; Study 15205, single SC 0.5, 2.0 or 8.0 mg/kg, Days 3, 7 and 14): comparable intestinotrophic response on villi and crypt length at all three dose levels
